Measured values as given in PMC6882436 (Journal of Extracellular Vesicles, 2019).

Target: T1, eGFP-CD82 (KAI1/CD82) (Homo sapiens, UniProt P27701)
T1 sequence (P27701 1-267): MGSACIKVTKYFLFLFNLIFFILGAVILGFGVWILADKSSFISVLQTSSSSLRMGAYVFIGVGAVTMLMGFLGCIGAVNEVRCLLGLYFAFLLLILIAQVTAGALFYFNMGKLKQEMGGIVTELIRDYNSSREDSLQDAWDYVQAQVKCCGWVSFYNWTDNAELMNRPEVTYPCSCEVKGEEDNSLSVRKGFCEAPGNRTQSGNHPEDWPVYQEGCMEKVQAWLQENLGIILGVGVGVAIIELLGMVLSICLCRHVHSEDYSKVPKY
Assay: microscale thermophoresis, eGFP fluorescence, cell lysate
Type: binding

- Kd: 5.89 µM
SMILES: CC(C)CCC[C@@H](C)[C@H]1CC[C@H]2[C@@H]3CC=C4C[C@@H](O)CC[C@]4(C)[C@H]3CC[C@]12C [cholesterol]
